Experimental findings from patent US20170258761A1, “Pharmaceutical Compositions Comprising Canagliflozin” (Sandoz AG, priority 2014, published 2017) are described below.

Type in all cases: physicochemical
A short description of data set [1]: Equilibrium aqueous solubility at 25 °C (HPLC). As to conditions: water, 25 ± 1° C. Here is the method:
As described in Example 5 of the co-pending application PCT/EP2014/059281, the aqueous solubilities of forms HxA and HxB of the present invention and the hemihydrate of Canagliflozin described in WO 2008/069327 A1 were determined by the equilibrium solubility method. Saturated solutions of Canagliflozin, obtained by stirring 50 mg of each crystalline form in 50 mL water were prepared and stirred at 25±1° C. After 60 minutes of stirring, three samples were withdrawn, filtered through 0.45 μm syringe filters and the filtrates were directly analyzed by HPLC.
Using six concentration points of known Canagliflozin concentrations a calibration line was fitted by linear regression.

A short description of data set [2]: Equilibrium solubility of Canagliflozin in McIlvaine buffer, FaSSIF and FeSSIF with excipients. As to conditions: 37 °C, thermodynamic from solid.
Assay in data set [3]: as above
As to conditions: 37 °C, thermodynamic from solid. How it is done:
Inhibition of precipitation and supersaturation effects were also evaluated in more biorelevant dissolution media, FaSSIF and FeSSIF, prepared according to Dressman et al. (Dressman et al. Dissolution testing as a prognostic tool for oral drug absorption: immediate release dosage forms. Pharm Res, 1998)). Excipients were used in 1 mg/ml concentration. […] All tests were performed in duplicate.
The source holds these as a separate data set.

Data set [4] can be described thus: Influence of water activity on physical stability of Canagliflozin. As to conditions: samples exposed to 30, 40, 50, 60 RH %, then 50° C. for 14 days. Here is the method:
The influence of water activity on physical stability of Canagliflozin were further tested. Prior storage at stress stability conditions samples were exposed to different relative humidity (30, 40, 50 and 60 RH %). After storage at elevated temperature (50° C.) for 14 days samples were tested for water activity and polymorphic form. It was established that Canagliflozin was physically stable when water activity was≦0.3. Results confirmed that appropriate dryness of the samples is critical for product stability.
The influence of water activity of the formulation on physical stability of Canagliflozin was further tested. Prior storage at stress stability conditions samples were exposed to different relative humidity (30, 40, 50 and 60 RH %). After storage at elevated temperature (50° C.) for 14 days samples were tested for water activity and polymorphic form. It was established that Canagliflozin was physically stable when water activity was≦0.4. Results confirmed that appropriate dryness of the samples is critical for product stability (see Table 14, showing Examples 2 and 7 as exemplary samples).

Data set [5] in a line: Water activity of excipients, normal and dried. As to conditions: for Water activity dry (#): excipient dried for 4 hours at ambient temperature in a vacuum chamber; for Water activity normal (*): excipient exposed to 40% RH for 24 hours at ambient temperature. Here is the method: The influence of water activity of each excipient on chemical and physical stability of Canagliflozin was further tested.
In Table 12, the normal (*) excipients mean that they were exposed to 40% RH for 24 hours at ambient temperature; and the dry (#) excipients mean that they were dried for 4 hours at ambient temperature in a vacuum chamber.

Data set [6] in a line: Chemical stability in binary mixtures with excipients. Particulars: 1 g + 1 g excipient of Table 9, tablets, 50° C., sealed glass vial, 14 days. Here is the method:
Canagliflozin degradation products were followed by high performance liquid chromatography using the following chromatographic method. Samples were dissolved in a mixture of 60 w/w % acetonitrile in buffer pH=5 (0.77 g of CH3OONH4 in 1 L of water, pH adjusted to pH=5 with acetic acid) to achieve a concentration of about 0.2 mg/ml of Canagliflozin. The sample solution was injected into an UHPLC system with a BEH C18 column (1.7 micrometer particles) using binary gradient elution. Mobile phase A consisted of mixture of 70 w/w % buffer with pH=5 in acetonitrile and mobile phase B consisted of acetonitrile. Gradient elution was performed according to the following program: mobile phase A (%)/time (min): 100%/0 min; 100%/5 min; 14%/[…]; 40%/35 min; 15%/40 min; 15%/45 min. The detector was set to a wavelength of 290 nm and impurities quantitated as area % with no response factors applied. Stability of samples was monitored by exposing them to elevated temperature (50° C.) in a sealed glass vial for 14 days. After storage, samples were analysed and the amounts of degradation products measured by UHPLC. The extent of degradation was determined by subtracting the total amount of degradation products of a […] from the total amount of degradation of a […].

The nature of data set [7]: Solubility and dynamic solubility of amorphous Canagliflozin versus hemihydrate. Particulars: 37° C., shaking, HPLC. How it is done:
Additionally dynamic solubility in water was determined at 0.5 h, 1 h and 24 h time points (37° C., shaking, HPLC determination).

The nature of data set [8]: Precipitation inhibition screening of excipients with nephelometer. As to conditions: McIlvaine buffer pH 6.8. Here is the method: In vitro high-throughput precipitation inhibition screening with nephelometer was performed for different excipients in McIlvaine buffer pH 6.8 at 1%, 0.1%, and 0.01% (w/v) according to the procedure published in Petrusevska et al (Petrusevska et al. Evaluation of light scattering and turbidity microtiter plate-based methods for detection of the excipient-mediated drug precipitation inhibition. Eur J Pharm Biopharm, 2013). The ratio between turbidity signal for each tested concentration of selected excipient with Canagliflozin and plain buffer containing only Canagliflozin were determined.

Each structure is given as a SMILES string. Converted amounts (≈) assume the structure as drawn. Read-outs that look alike come from different tables or passages of the source. A value given as a limit tells only on which side of the number the result lay.

As for `Cc1ccc([C@@H]2O[C@H](CO)[C@@H](O)[C@H](O)[C@H]2O)cc1Cc1ccc(-c2ccc(F)cc2)s1` [form HxA, 1-(β-D-glucopyranosyl)-4-methyl-3-[5-(4-fluorophenyl)-2-thienylmethyl]benzene form HxA], in data set [1], the “Rel. Solubilities” value was determined as 100% and the “increased aqueous solubility compared to the crystalline hemihydrate of WO 2008/069327 A1” value stood at 10%. The “Abs. Solubilities” value in data set [1] (60 minutes of stirring) worked out at 20 µg/mL.
With `Cc1ccc([C@@H]2O[C@H](CO)[C@@H](O)[C@H](O)[C@H]2O)cc1Cc1ccc(-c2ccc(F)cc2)s1` [form HxB, 1-(β-D-glucopyranosyl)-4-methyl-3-[5-(4-fluorophenyl)-2-thienylmethyl]benzene form HxB], in data set [1], the “Rel. Solubilities” value is on record as 100% and the “increased aqueous solubility compared to the crystalline hemihydrate of WO 2008/069327 A1” value was 10%. Further, in data set [1] (60 minutes of stirring), the “Abs. Solubilities” value was 20 µg/mL.
`Cc1ccc([C@@H]2O[C@H](CO)[C@@H](O)[C@H](O)[C@H]2O)cc1Cc1ccc(-c2ccc(F)cc2)s1` [Canagliflozin, 1-(β-D-glucopyranosyl)-4-methyl-3-[5-(4-fluorophenyl)-2-thienylmethyl]benzene]: the solubility thermodynamic at 24 h in data set [2] (FaSSIF, pH 6.5, fassif, no excipient, 24 h incubation, read-out: Equilibrium solubility in FaSSIF pH 6.5) is 5310 ± 970 µg/mL (≈ 11.9 mM); in data set [2] (McIlvaine buffer, pH 6.5, aqueous buffer, buffer, no excipient, 24 h incubation, read-out: Equilibrium solubility in McIlvaine buffer pH 6.5), 21 ± 1 µg/mL (≈ 0.0472 mM); in data set [2] (McIlvaine buffer, pH 6.5, aqueous with cosolvent or surfactant or cyclodextrin, with HPMC 606 1 mg/ml, 24 h, read-out: Equilibrium solubility in McIlvaine buffer pH 6.5), 62 ± 7 µg/mL (≈ 0.139 mM); in data set [2] (McIlvaine buffer, pH 6.5, aqueous with cosolvent or surfactant or cyclodextrin, with Texapon 1 mg/ml, 24 h, read-out: Equilibrium solubility in McIlvaine buffer pH 6.5), 2850 ± 332 µg/mL (≈ 6.4 mM); in data set [2] (McIlvaine buffer, pH 6.5, aqueous with cosolvent or surfactant or cyclodextrin, with Texapon + HPMC 603, each 1 mg/ml, 24 h, read-out: Equilibrium solubility in McIlvaine buffer pH 6.5), 2580 ± 36 µg/mL; in data set [3] (FaSSIF, pH 6.5, aqueous with cosolvent or surfactant or cyclodextrin, with Texapon 1 mg/ml, 24 h, read-out: Equilibrium solubility in FaSSIF pH 6.5), 7.98 mg/mL (≈ 18 mM). For the same compound, the solubility thermodynamic at 24 h came to 8.48 ± 0.18 mg/mL in data set [3] (FaSSIF, pH 6.5, aqueous with cosolvent or surfactant or cyclodextrin, with Texapon + HPMC 603, each 1 mg/ml, 24 h, read-out: Equilibrium solubility in FaSSIF pH 6.5); 25 ± 1.34 mg/mL (≈ 56.2 mM) in data set [3] (FeSSIF, pH 5.5, aqueous with cosolvent or surfactant or cyclodextrin, with Texapon 1 mg/ml, 24 h, read-out: Equilibrium solubility in FeSSIF pH 5.5); 27.8 ± 2.35 mg/mL in data set [3] (FeSSIF, pH 5.5, aqueous with cosolvent or surfactant or cyclodextrin, with Texapon + HPMC 603, each 1 mg/ml, 24 h, read-out: Equilibrium solubility in FeSSIF pH 5.5); 21 ± 1.03 mg/mL (≈ 47.3 mM) in data set [3] (FeSSIF, pH 5.5, fessif, no excipient, 24 h incubation, read-out: Equilibrium solubility in FeSSIF pH 5.5). The “water activity at which Canagliflozin was physically stable” value in data set [4] (Example A (non-stoichiometric hydrate)) is at most 0.3; in data set [4] (Example B (amorphous formulation)) it was at most 0.4.
As to `CCCCCCCCCCCCCCCCCC(=O)[O-].CCCCCCCCCCCCCCCCCC(=O)[O-].[Mg+2]` [Mg stearate], in data set [5], the “Water activity dry (#)” value was 15.9 and the “Water activity normal (*)” value is 26.6.
For the compound `Cc1ccc([C@@H]2O[C@H](CO)[C@@H](O)[C@H](O)[C@H]2O)cc1Cc1ccc(-c2ccc(F)cc2)s1` [amorphous Canagliflozin, 1-(β-D-glucopyranosyl)-4-methyl-3-[5-(4-fluorophenyl)-2-thienylmethyl]benzene], in data set [6], the “degradation products (impurities) in binary mixtures with excipients” value was “no increase in impurities was observed”. For the same compound, the “dynamic solubility in water compared to crystalline Canagliflozin hemihydrate” value in data set [7] (0.5 h, 1 h and 24 h) is “increased solubility as well as dynamic solubility”. Also, the “solubility compared to crystalline Canagliflozin hemihydrate” value in data set [7] (pH 1.2, 4.5 and 6.8) was “increased solubility”.
On to `Cc1ccc([C@@H]2O[C@H](CO)[C@@H](O)[C@H](O)[C@H]2O)cc1Cc1ccc(-c2ccc(F)cc2)s1` [hemihydrate of WO 2008/069327 A1 (=Hy0.5)] [1-(β-D-glucopyranosyl)-4-methyl-3-[5-(4-fluorophenyl)-2-thienylmethyl]benzene], for which the “degradation products (impurities) in binary mixtures with excipients” value in data set [6] (listed as Canagliflozin hemihydrate) was “impurities were increased when containing excipients such as Syloid, PEG 6000 and Polyoxyl 40 hydrogenated castor oil”. For the same compound, the “Rel. Solubilities” value in data set [1] stood at 90%.
Consider `OC[C@H]1O[C@@H](O[C@H]2[C@H](O)[C@@H](O)C(O)O[C@@H]2CO)[C@H](O)[C@@H](O)[C@H]1O` (stereo partly drawn) [Lactose anhydrous], for which, in data set [5], the “Water activity dry (#)” value turned out to be 14.8 and the “Water activity normal (*)” value worked out at 28.6.
As for `CCCCCCCCCCCCOS(=O)(=O)[O-].[Na+]` [Texapon, Sodium Lauryl Sulfate], in data set [8] (excipient at highest concentration tested (1% w/v)), the “time Canagliflozin supersaturation was sustained” value is 10 min. Moreover, the “rate of canagliflozin dissolution in the presence of excipient” value in data set [8] (highest concentration tested) is “fastest”.
As for `Cc1ccc([C@@H]2O[C@H](CO)[C@@H](O)[C@H](O)[C@H]2O)cc1Cc1ccc(-c2ccc(F)cc2)s1` [1-(β-D-glucopyranosyl)-4-methyl-3-[5-(4-fluorophenyl)-2-thienylmethyl]benzene], in data set [1] (25 °C, thermodynamic from solid, 60 minutes of stirring, read-out: Abs. Solubilities), the solubility at 60 min was determined as 18 µg/mL (≈ 0.0405 mM).
